From patent publication US20150209379A1, “TREATMENT OF PROSTATE CANCER AND HEMATOLOGIC NEOPLASMS” (THOMAS JEFFERSON UNIVERSITY, priority 2012, published 2015)

Assays:
[1] = system: CWR22Rv1 prostate cancer cells; test: Cell viability, MTS assay, CWR22Rv1 prostate cancer cells; format: cell-based, human; details: CWR22Rv1, 72 h, 3.1, 6.3, 12.5, 25 and 50 μM, vs control compound C5
Experimental: (§1) Exponentially growing CWR22Rvl prostate cancer cells were treated with Compound 1, Compound 2 or the control compound C5 for 72 h at 3.1, 6.3. 12.5, 25 and 50 μM concentrations. The cell viability was assessed by MTS (3-(4,5-dimethylthiazolyl-2)-2,5-diphenyl-tetrazolium bromide) metabolic activity assay (CellTiter 96® AQueous Assay kit).
as §1, with “CWR22Rv1” for “CWR22Rvl”, “cancer cells, K562 leukemia cells and imatinib-sensitive KCL22S and imatinib-resistant KCL22R chronic myeloid leukemia” for “cancer”, “NBPP” for “Compound 1, Compound 2”
as §1, with “N6BA” for “Compound 1, Compound 2”

[2] = system: KCL22 human chronic myeloid leukemia cells; test: Cell viability, MTS assay, KCL22 (imatinib-sensitive) chronic myeloid leukemia cells; format: cell-based; details: KCL22 (KCL22S), 72 h, 3.1, 6.3, 12.5, 25 and 50 μM, vs control compound C5
Experimental: as §1, with “KCL22 human chronic myeloid leukemia” for “CWR22Rvl prostate cancer”
as §1, with “CWR22Rv1” for “CWR22Rvl”, “cancer cells, K562 leukemia cells and imatinib-sensitive KCL22S and imatinib-resistant KCL22R chronic myeloid leukemia” for “cancer”, “NBPP” for “Compound 1, Compound 2”

Stat5a/b [3] = test: Constitutive Stat5a/b phosphorylation in imatinib-resistant KCL22R cells (Western blot); format: cell-based, human
Experimental: (§2) Exponentially growing KCL22S and KCL22R cells were treated with Compound 1 or Compound 2 at various concentrations for 3 h and 16 h (Compound 1) or 3 h, 6 h or 16 h (Compound 2) after which the cells were harvested. Cell pellets were solubilized in lysis buffer [10 mM Tris-HCl (pH 7.6), 5 mM EDTA, 50 mM sodium chloride, 30 mM sodium pyrophosphate, 50 mM sodium fluoride, 1 mM sodium orthovanadate, 1% Triton X-100, 1 mM phenylmethylsulfonyl fluoride, 5 μg/ml aprotinin, 1 μg/ml pepstatin A, and 2 μg/ml leupeptin], rotated end-over-end at 4° C. for 60 min, and insoluble material was pelleted at 12,000×g for 30 min at 4° C. The protein concentrations of clarified cell lysates were determined by simplified Bradford method (Bio-Rad Laboratories, Hercules, Calif.). Western blotting of the lysates was carried out using, as primary antibodies, the following antibodies at the following concentrations: anti-phosphotyrosine-Stat5a/b (Y694/Y699) mAb (1 μg/ml, Advantex BioReagents, Conroe, Tex.), anti-Stat5ab mAb (1:250; BD Biosciences, San Jose, Calif.) or anti-actin pAb (Sigma). Anti-actin was included as a control.
(§3) Exponentially growing K562 cells were treated with NBPP for 3 h or 6 h after which the cells were harvested. Exponentially growing K562 cells or imatinib-resistant K562 cells were treated with NBPP for 6 h or 16 h after which the cells were harvested. Cell pellets were solubilized in lysis buffer [10 mM Tris-HCl (pH 7.6), 5 mM EDTA, 50 mM sodium chloride, 30 mM sodium pyrophosphate, 50 mM sodium fluoride, 1 mM sodium orthovanadate, 1% Triton X-100, 1 mM phenylmethylsulfonyl fluoride, 5 μg/ml aprotinin, 1 μg/ml pepstatin A, and 2 μg/ml leupeptin], rotated end-over-end at 4° C. for 60 min, and insoluble material was pelleted at 12,000×g for 30 min at 4° C. The protein concentrations of clarified cell lysates were determined by simplified Bradford method (Bio-Rad Laboratories, Hercules, Calif.). […]

Stat5a/b [4] = test: Constitutive Stat5a/b phosphorylation in imatinib-sensitive KCL22S cells (Western blot); format: cell-based, human
Experimental: as §2, §3

[5] = system: KCL22R imatinib-resistant human chronic myeloid leukemia cells; test: Cell viability, MTS assay, KCL22R imatinib-resistant chronic myeloid leukemia cells; format: cell-based; details: 72 h, 3.1, 6.3, 12.5, 25 and 50 μM, vs control compound C5
Experimental: as §1, with “KCL22R imatinib-resistant human chronic myeloid leukemia” for “CWR22Rvl prostate cancer”
as §1, with “CWR22Rv1” for “CWR22Rvl”, “cancer cells, K562 leukemia cells and imatinib-sensitive KCL22S and imatinib-resistant KCL22R chronic myeloid leukemia” for “cancer”, “NBPP” for “Compound 1, Compound 2”

[6] = KCL22R, various concentrations, 3 h and 16 h (Compound 1) or 3 h, 6 h or 16 h (Compound 2)
[7] = KCL22S, various concentrations, 3 h and 16 h (Compound 1) or 3 h, 6 h or 16 h (Compound 2)

SMILES	number of viable cells [1]	number of viable cells [2]	effect on phosphorylation of Stat5 (Stat5a/b [3]; [6])	effect on phosphorylation of Stat5 (Stat5a/b [4]; [7])	number of viable cells [5]	effect on phosphorylation of Stat5 (Stat5a/b [3]; KCL22R imatinib-resistant, 6 h or 16 h)	effect on phosphorylation of Stat5 (Stat5a/b [4]; KCL22S imatinib-sensitive, 6 h or 16 h)
OC[C@H]1O[C@@H](n2cnc3c(NCc4ccccc4)ncnc32)[C@H](O)[C@@H]1O [Compound N6BA, N^6-benzyladenosine]	decreased the number of viable prostate cancer cells	–	–	–	–	–	–
OC[C@H]1O[C@@H](n2cnc3c(N4CCc5ccccc5C4)ncnc32)[C@H](O)[C@@H]1O [Compound 1, (2R,3R,4S,5R)-2-(6-(3,4-Dihydroisoquinolin-2(1H)-yl)-9H-purin-9-yl)-5-(hydroxymethyl)tetrahydrofuran-3,4-diol]	decreased the number of viable prostate cancer cells compared to the control compound	decreased the number of viable leukemic cancer cells compared to the control compound	block phosphorylation of Stat5	block phosphorylation of Stat5	decreased the number of viable leukemic cancer cells compared to the control compound	–	–
OC[C@H]1O[C@@H](n2ccc3c(NCc4ccccc4)ncnc32)[C@H](O)[C@@H]1O [NBPP, N-(phenylmethyl)-7-β-D-ribofuranosyl-7H-pyrrolo[2,3-d]pyrimidin-4-amine]	decreased the number of viable prostate cancer cells	decreased the number of viable KCL22S cells	–	–	decreased the number of viable KCL22R cells	inhibits phosphorylation of Stat5	inhibits phosphorylation of Stat5
OC[C@H]1O[C@@H](n2cnc3c(NNc4ccccc4)ncnc32)[C@H](O)[C@@H]1O [Compound 2, (2R,3S,4R,5R)-2-(hydroxymethyl)-5-(6-(2-phenylhydrazinyl)-9H-purin-9-yl)tetrahydrofuran-3,4-diol]	decreased the number of viable prostate cancer cells compared to the control compound	decreased the number of viable leukemic cancer cells compared to the control compound	block phosphorylation of Stat5	block phosphorylation of Stat5	decreased the number of viable leukemic cancer cells compared to the control compound	–	–
